Data on nine compounds can be found in PubChem BioAssay (NCI).

Among the test systems are M14 melanoma; HCT-15 colon; HCT-116 colon; SF-295 CNS; OVCAR-5 ovarian; SF-539 CNS; NCI/ADR-RES ovarian; KM12 colon; A549 NSCLC; K-562 leukemia.
Common to all, as to assay: NCI tumour cell line growth inhibition, 48 h

Several values for one entry are separate records, joined by “and”; a condition that tells them apart may be missing. Equal values may be shown once.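 Values below derive from 48-hour exposures of cells grown in 96-well plates, with endpoints linearly interpolated between the two concentrations bracketing the appropriate inhibition level. Abbreviation: GI50, concentration required for 50% inhibition of growth. Definition used: TGI = concentration required for complete inhibition of growth.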 Where only a bound is given, the exact number is not on record here.

Regarding `CCN1CCCCC(=N\O)/C(=N/O)CCCC1`, the TGI in the assay on M14 melanoma, with HCT-15 colon, with HCT-116 colon, in the assay with SF-295 CNS, in the assay on OVCAR-5 ovarian and with SF-539 CNS was above 100 µM in each case. Moreover, the TGI with NCI/ADR-RES ovarian, with KM12 colon and with A549 NSCLC was above 100 µM each time.

Regarding `C=C1C(=O)O[C@H]2[C@H]1CC/C(COC(=O)C(=O)c1cn(C)c3ccc(OC)cc13)=C\CC[C@@]1(C)O[C@@H]21`, the GI50 is 5970 nM in the assay with K-562 leukemia; 3220 nM in the assay with M14 melanoma; 1750 nM in the assay on HCT-15 colon; 3610 nM in the assay with HCT-116 colon; 9350 nM with SF-295 CNS; 6120 nM in the assay on OVCAR-5 ovarian. For the same compound, the GI50 with SF-539 CNS was 4960 nM; in the assay with NCI/ADR-RES ovarian it was 4970 nM; in the assay with KM12 colon, 6410 nM; with A549 NSCLC, 7610 nM. Moreover, the TGI in the assay with K-562 leukemia is above 61.3 µM; in the assay with M14 melanoma it was 8.27 µM; in the assay on HCT-15 colon it was 3.23 µM; in the assay with HCT-116 colon, 7.38 µM; in the assay with SF-295 CNS, 21.8 µM; in the assay on OVCAR-5 ovarian it was 13.6 µM. Further, the TGI in the assay on SF-539 CNS came out at 8.94 µM; in the assay on NCI/ADR-RES ovarian, 25.8 µM; in the assay with KM12 colon, 13.3 µM; with A549 NSCLC, 14.2 µM.

On to `COc1ccc(-c2[nH]ncc2-c2cc(OC)c(OC)c(OC)c2)cc1`, for which the GI50 with K-562 leukemia was below 10 nM; in the assay on M14 melanoma, below 10 nM; in the assay with HCT-15 colon, below 10 nM; with HCT-116 colon it was below 10 nM; with SF-295 CNS it was below 10 nM; in the assay on OVCAR-5 ovarian, below 18 nM. The GI50 in the assay with SF-539 CNS, in the assay on NCI/ADR-RES ovarian, in the assay with KM12 colon and in the assay on A549 NSCLC was below 10 nM throughout. In addition, the TGI was above 34.4 µM in the assay on K-562 leukemia; 0.852 µM in the assay on M14 melanoma; above 80.6 µM in the assay with HCT-15 colon; 12.2 µM in the assay on HCT-116 colon; below 0.01 µM with SF-295 CNS; above 47.7 µM in the assay on OVCAR-5 ovarian. Besides, the TGI in the assay on SF-539 CNS was below 0.0128 µM; in the assay on NCI/ADR-RES ovarian, 1.93 µM; in the assay with KM12 colon, 13.1 µM; in the assay on A549 NSCLC it was above 38 µM.

As for `CCOC(=O)c1cnc2c(cnn2CC)c1NN=C(C)C`, the GI50 was 59600 nM with K-562 leukemia; above 100000 nM in the assay on M14 melanoma; 32000 nM with HCT-15 colon; 47100 nM with HCT-116 colon; 27600 nM with SF-295 CNS; 26600 nM with OVCAR-5 ovarian. The GI50 is 74900 nM in the assay with SF-539 CNS, 38000 nM with NCI/ADR-RES ovarian, 67100 nM in the assay with KM12 colon and 40100 nM in the assay with A549 NSCLC. The TGI in the assay on K-562 leukemia, in the assay with M14 melanoma, in the assay with HCT-15 colon, in the assay on HCT-116 colon, with SF-295 CNS and with OVCAR-5 ovarian was above 100 µM in each case. The TGI in the assay on SF-539 CNS, with NCI/ADR-RES ovarian, in the assay with KM12 colon and in the assay with A549 NSCLC was above 100 µM each time.

`CCC(C)CC(CC)NCCN1CCN(C(CC)CC(C)CC)C1=S` (stereo unspecified): the GI50 in the assay with M14 melanoma was 1790 nM; with HCT-15 colon it was 1790 nM; in the assay with HCT-116 colon it was 1790 nM; in the assay on SF-295 CNS, 1860 nM; with OVCAR-5 ovarian, 1720 nM; with SF-539 CNS it was 1970 nM. Further, the values for the GI50 with NCI/ADR-RES ovarian, with KM12 colon and in the assay with A549 NSCLC were 1660 nM, 1710 nM and 1760 nM, respectively. Also, the TGI came out at 3.25 µM in the assay with M14 melanoma; 3.4 µM in the assay with HCT-15 colon; 3.27 µM in the assay on HCT-116 colon; 3.68 µM in the assay with SF-295 CNS; 3.32 µM in the assay on OVCAR-5 ovarian; 3.43 µM with SF-539 CNS. The TGI stood at 3.39 µM with NCI/ADR-RES ovarian, 3.22 µM with KM12 colon and 3.37 µM in the assay with A549 NSCLC.

Consider `COc1ccc(Nc2c[nH]c(=O)[nH]c2=O)cc1`, for which the TGI with K-562 leukemia, in the assay on M14 melanoma, with HCT-15 colon, in the assay with HCT-116 colon, with SF-295 CNS and with SF-539 CNS was above 100 µM in each case. Also, the TGI in the assay with NCI/ADR-RES ovarian, in the assay with KM12 colon and with A549 NSCLC was above 100 µM each time.

As for `COc1ccc(Cn2cc(Cn3c(=O)c(-c4nc5ccccc5[nH]4)cc4ccccc43)nn2)c(OC)c1OC`, the GI50 in the assay with K-562 leukemia is 162 nM and 191 nM; in the assay on HCT-15 colon, 378 nM; in the assay on HCT-116 colon, 94 nM and 95.4 nM; with SF-295 CNS, 239 nM and 324 nM; in the assay on OVCAR-5 ovarian it was 201 nM and 329 nM; with SF-539 CNS, 144 nM and 206 nM. Moreover, the GI50 in the assay with NCI/ADR-RES ovarian was 1100 nM and 1830 nM; in the assay on KM12 colon, 226 nM and 186 nM; in the assay with A549 NSCLC, 213 nM and 477 nM. For the same compound, the TGI is 50 µM and > 100 µM with K-562 leukemia; above 100 µM with HCT-15 colon; 1.25 µM and 1.73 µM with HCT-116 colon; 1.19 µM and 1.94 µM in the assay on SF-295 CNS; 1.23 µM and 1.53 µM in the assay on OVCAR-5 ovarian; 0.664 µM and 0.872 µM in the assay on SF-539 CNS. In addition, the TGI is 3.96 µM and 15.8 µM in the assay on NCI/ADR-RES ovarian; 1.39 µM and 1.48 µM in the assay with KM12 colon.

For the compound `COc1cc(/C=C2\CCc3ccccc3C2=O)cc(OC)c1OC`, the TGI in the assay with K-562 leukemia was above 100 µM; in the assay with M14 melanoma it was 30 µM; in the assay on HCT-15 colon, 34.5 µM; in the assay with HCT-116 colon, 28 µM; in the assay on SF-295 CNS, 28.6 µM; in the assay on OVCAR-5 ovarian, 27.9 µM. Also, the TGI in the assay on SF-539 CNS is 30.8 µM; with KM12 colon, 26.5 µM; in the assay on A549 NSCLC, 50.1 µM.

With `O=C(O/N=C1/CCCC/C1=C\c1ccccc1)c1ccc(Cl)cc1`, the TGI in the assay with K-562 leukemia, in the assay with M14 melanoma, in the assay with HCT-15 colon, with HCT-116 colon, in the assay with SF-295 CNS and with OVCAR-5 ovarian was above 100 µM in each case. Besides, the TGI with SF-539 CNS, in the assay on KM12 colon and in the assay on A549 NSCLC was above 100 µM throughout.
